These results are taken from patent publication US9834554B2, “BTK inhibitors” (MERCK SHARP & DOHME CORP., priority 2013, dated 2017).

The target of this assay is BTK enzyme (recombinant full-length BTK, hBTK) (Homo sapiens (Human), UniProt Q06187). The experiment in a line: Btk enzyme activity assay, LANCE TR-FRET. The following applies: read-out: BTK binding IC50; 50 pM hBTK, 2 μM biotin-A5-peptide, 25 μM ATP; 60 minute compound & enzyme incubation. (Time-resolved FRET reads energy transfer from a long-lived donor to a nearby acceptor.)
Sequence of BTK enzyme (recombinant full-length BTK, hBTK) (Q06187 whole entry): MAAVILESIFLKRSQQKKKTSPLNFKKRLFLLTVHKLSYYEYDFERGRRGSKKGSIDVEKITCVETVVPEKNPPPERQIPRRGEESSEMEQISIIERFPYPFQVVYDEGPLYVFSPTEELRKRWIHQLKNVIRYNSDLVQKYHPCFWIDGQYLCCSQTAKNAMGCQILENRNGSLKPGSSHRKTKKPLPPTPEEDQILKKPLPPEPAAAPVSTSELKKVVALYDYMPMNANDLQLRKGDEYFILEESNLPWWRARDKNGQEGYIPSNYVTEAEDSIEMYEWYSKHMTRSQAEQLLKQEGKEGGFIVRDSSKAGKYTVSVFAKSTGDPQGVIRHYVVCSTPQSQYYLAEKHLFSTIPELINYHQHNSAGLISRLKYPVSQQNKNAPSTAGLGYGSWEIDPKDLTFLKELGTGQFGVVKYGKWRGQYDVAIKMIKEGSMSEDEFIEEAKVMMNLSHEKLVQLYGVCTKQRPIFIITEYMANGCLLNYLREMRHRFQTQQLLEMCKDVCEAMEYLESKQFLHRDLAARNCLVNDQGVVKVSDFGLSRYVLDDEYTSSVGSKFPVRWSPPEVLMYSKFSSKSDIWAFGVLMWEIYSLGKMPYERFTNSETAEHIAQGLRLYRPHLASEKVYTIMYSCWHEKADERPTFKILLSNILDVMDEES
Protocol: Also BTK enzymatic activity was determined with the LANCE (Lanthanide Chelate Excite) TR-FRET (Time-resolved fluorescence resonance energy transfer) assay. […] Phosphorylation reactions were allowed to proceed for 120 minutes. […] After 60 minutes incubation with detection reagents, reaction plates were read on a PerkinElmer EnVision plate reader using standard TR-FRET protocol. Briefly, excitation of donor molecules (Eu-chelate:anti-phospho-antibody) with a laser light source at 337 nm produces energy that can be transferred to Dylight-650 acceptor molecules if this donor:acceptor pair is within close proximity. Fluorescence intensity at both 665 nm (acceptor) and 615 nm (donor) are measured and a TR-FRET ratio calculated for each well (acceptor intensity/donor intensity).
Btk Enzyme Activity Assay Method
BTK enzymatic activity was determined with the LANCE (Lanthanide Chelate Excite) TR-FRET (Time-resolved fluorescence resonance energy transfer) assay. […] Phosphorylation reactions were allowed to proceed for 120 minutes. […] After 60 minutes incubation with detection reagents, reaction plates were read on a PerkinElmer EnVision plate reader using standard TR-FRET protocol. Briefly, excitation of donor molecules (Eu-chelate:anti-phospho-antibody) with a laser light source at 337 nm produces energy that can be transferred to Dylight-650 acceptor molecules if this donor:acceptor pair is within close proximity. Fluorescence intensity at both 665 nm (acceptor) and 615 nm (donor) are measured and a TR-FRET ratio calculated for each well (acceptor intensity/donor intensity).
For the compound `CCC(=O)N1CCC[C@@H](c2nn(-c3ccc(C(=O)Nc4cc(C(F)(F)F)ccn4)cc3)c3c(N)nccc23)C1` [Example 11, 4-{7-amino-3-[(3R)-1-propanoylpiperidin-3-yl]-1H-pyrazolo[3,4-c]pyridin-1-yl}-N-[4-(trifluoromethyl)pyridin-2-yl]benzamide], the IC50 is 0.57 nM.

Take `C[C@H](O)C(=O)N1C[C@H](c2nn(-c3ccc(C(=O)Nc4cc(C5CC5)ccn4)cc3)c3c(N)nccc23)CC[C@@H]1C` [Example 32, 4-(7-amino-3-{(3R,6S)-1-[(2S)-2-hydroxypropanoyl]-6-methylpiperidin-3-yl}-1H-pyrazolo[3,4-c]pyridin-1-yl)-N-(4-cyclopropylpyridin-2-yl)benzamide]: the IC50 was 1.6 nM.

Take `CCOc1cc(C(=O)Nc2cc(C(F)(F)F)ccn2)ccc1-n1nc([C@@H]2CC[C@H]3CCC(=O)N3C2)c2ccnc(N)c21` [Example 41, 4-{7-amino-3-[(6R,8aS)-3-oxooctahydroindolizin-6-yl]-1H-pyrazolo[3,4-c]pyridin-1-yl}-3-ethoxy-N-[4-(trifluoromethyl)pyridin-2-yl] benzamide]: the IC50 was found to be 0.44 nM.

With `COc1ccnc(NC(=O)c2ccc(-n3nc([C@H]4CN(C(=O)C5(C)COC5)CCO4)c4ccnc(N)c43)cc2)c1` [Example 8, 4-(7-amino-3-{(2R)-4-[(3-methyloxetan-3-yl)carbonyl]morpholin-2-yl}-1H-pyrazolo[3,4-c]pyridin-1-yl)-N-(4-methoxypyridin-2-yl)benzamide], the IC50 turned out to be 42.1 nM.

For the compound `COc1ccnc(NC(=O)c2ccc(-n3nc([C@@H]4CCCN(C(=O)C(C)(CO)CO)C4)c4ccnc(N)c43)cc2)c1` [Example 29, (R)-4-(7-amino-3-(1-(3-hydroxy-2-(hydroxymethyl)-2-methylpropanoyl)piperidin-3-yl)-1H-pyrazolo[3,4-c]pyridin-1-yl)-N-(4-methoxypyridin-2-yl)benzamide 2,2,2-trifluoroacetate], the IC50 turned out to be 1.6 nM.

Broadly, the IC50 is the concentration needed to halve the response being measured.
